In patent US20040152750A1, “Novel glucagon antagonists” (priority 2002, published 2004):

melting point: 178 to 180 °C
Structure (SMILES): O=C(O)CCNC(=O)c1ccc(N(Cc2ccc(C3=CCCCC3)cc2)C(=O)/C=C/c2cccc(OC(F)(F)F)c2)cc1 [Example 211, 3-(4-{(4-Cyclohex-1-enylbenzyl)-[3-(3-trifluoromethoxyphenyl)acryloyl]amino}benzoylamino) -propionic acid]
